From US7282504B2, “Kinase inhibitors” (Amgen Inc., priority 2000, dated 2007)

Tests used:
Type in all cases: biochemical
[1] = molecular target: T1, Akt3-1 (Homo sapiens, UniProt Q9Y243); assay: Kinase inhibition, 33P transfer to plate-bound substrate: Akt3-1
T1 construct: Kinases are expressed as either kinase domains or full-length constructs; made in house
Excerpt: (§1) The inhibitor compounds described herein are screened in the following manner. Kinases suitable for use in the following protocol to determine kinase activity of the compounds described herein include, but are not limited to: Lck, Lyn, Src, Fyn, Syk, Zap-70, Itk, Tec, Btk, EGFR, ErbB2, Kdr, Flt-1, Flt-3, Tek, c-Met, InsR, and AKT.
(§2) Kinases are expressed as either kinase domains or full-length constructs fused to glutathione S-transferase (GST) or polyHistidine tagged fusion proteins in either E. coli or Baculovirus-High Five expression systems. They are purified to near homogeneity by affinity chromatography essentially as previously described (Lehr et al., 1996; Gish et al., 1995). In some instances, kinases are co-expressed or mixed with purified or partially purified regulatory polypeptides prior to measurement of activity.
(§3) Kinase activity and inhibition are measured essentially by established protocols (Braunwalder et al., 1996). Briefly, The transfer of ^33PO4 from ATP to the synthetic substrates poly(Glu, Tyr) 4:1 or poly(Arg, Ser) 3:1 attached to the bioactive surface of microtiter plates serves as the basis to evaluate enzyme activity. After an incubation period, the amount of phosphate transferred is measured by first washing the plate with 0.5% phosphoric acid, adding liquid scintillant, and then counting in a liquid scintillation detector. The IC50 is determined by the concentration of compound that causes a 50% reduction in the amount of ^33P incorporated onto the substrate bound to the plate.

[2] = molecular target: T2, EGFR-1 (Homo sapiens, UniProt P00533); assay: Kinase inhibition, 33P transfer to plate-bound substrate: EGFR-1
T2 construct: Kinases are expressed as either kinase domains or full-length constructs; made in house
Excerpt: as §1, §2, §3

[3] = molecular target: T3, Itk-1 (Homo sapiens, UniProt Q08881); assay: Kinase inhibition, 33P transfer to plate-bound substrate: Itk-1
T3 construct: Kinases are expressed as either kinase domains or full-length constructs; made in house
T3 sequence (Q08881 1-620): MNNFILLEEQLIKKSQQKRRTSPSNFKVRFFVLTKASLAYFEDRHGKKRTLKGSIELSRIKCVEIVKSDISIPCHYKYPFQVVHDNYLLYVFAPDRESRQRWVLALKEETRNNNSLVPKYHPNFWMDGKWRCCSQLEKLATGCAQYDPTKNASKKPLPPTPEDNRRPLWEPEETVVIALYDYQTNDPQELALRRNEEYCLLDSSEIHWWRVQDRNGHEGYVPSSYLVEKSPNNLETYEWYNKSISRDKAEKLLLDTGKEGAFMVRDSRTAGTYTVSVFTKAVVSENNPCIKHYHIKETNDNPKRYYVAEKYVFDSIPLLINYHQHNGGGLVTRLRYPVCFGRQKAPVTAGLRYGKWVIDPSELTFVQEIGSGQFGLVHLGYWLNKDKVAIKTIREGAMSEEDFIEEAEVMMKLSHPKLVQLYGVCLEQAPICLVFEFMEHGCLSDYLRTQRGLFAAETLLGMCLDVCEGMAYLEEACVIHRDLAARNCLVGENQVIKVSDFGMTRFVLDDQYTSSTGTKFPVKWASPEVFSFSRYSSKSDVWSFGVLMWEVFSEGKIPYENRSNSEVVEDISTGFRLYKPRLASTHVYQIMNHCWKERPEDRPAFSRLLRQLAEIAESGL
Excerpt: as §1, §2, §3

[4] = molecular target: T4, KDR-1 (Homo sapiens, UniProt P35968); assay: Kinase inhibition, 33P transfer to plate-bound substrate: KDR-1
T4 construct: Kinases are expressed as either kinase domains or full-length constructs; made in house
Excerpt: as §1, §2, §3

[5] = molecular target: T5, Lck-1 (Homo sapiens, UniProt P06239); assay: Kinase inhibition, 33P transfer to plate-bound substrate: Lck-1
T5 construct: Kinases are expressed as either kinase domains or full-length constructs; made in house
Excerpt: as §1, §2, §3

[6] = molecular target: T6, Lck-2 (Homo sapiens, UniProt P06239); assay: Kinase inhibition, 33P transfer to plate-bound substrate: Lck-2
T6 construct: Kinases are expressed as either kinase domains or full-length constructs; made in house
Excerpt: as §1, §2, §3

[7] = molecular target: T7, Met-1 (Homo sapiens, UniProt P08581); assay: Kinase inhibition, 33P transfer to plate-bound substrate: Met-1
T7 construct: Kinases are expressed as either kinase domains or full-length constructs; made in house
Excerpt: as §1, §2, §3

[8] = molecular target: T8, Tek-1 (Homo sapiens, UniProt Q02763); assay: Kinase inhibition, 33P transfer to plate-bound substrate: Tek-1
T8 construct: Kinases are expressed as either kinase domains or full-length constructs; made in house
Excerpt: as §1, §2, §3

[9] = molecular target: T9, Zap-1 (Homo sapiens, UniProt P43403); assay: Kinase inhibition, 33P transfer to plate-bound substrate: Zap-1
T9 construct: Kinases are expressed as either kinase domains or full-length constructs; made in house
T9 sequence (P43403 1-619): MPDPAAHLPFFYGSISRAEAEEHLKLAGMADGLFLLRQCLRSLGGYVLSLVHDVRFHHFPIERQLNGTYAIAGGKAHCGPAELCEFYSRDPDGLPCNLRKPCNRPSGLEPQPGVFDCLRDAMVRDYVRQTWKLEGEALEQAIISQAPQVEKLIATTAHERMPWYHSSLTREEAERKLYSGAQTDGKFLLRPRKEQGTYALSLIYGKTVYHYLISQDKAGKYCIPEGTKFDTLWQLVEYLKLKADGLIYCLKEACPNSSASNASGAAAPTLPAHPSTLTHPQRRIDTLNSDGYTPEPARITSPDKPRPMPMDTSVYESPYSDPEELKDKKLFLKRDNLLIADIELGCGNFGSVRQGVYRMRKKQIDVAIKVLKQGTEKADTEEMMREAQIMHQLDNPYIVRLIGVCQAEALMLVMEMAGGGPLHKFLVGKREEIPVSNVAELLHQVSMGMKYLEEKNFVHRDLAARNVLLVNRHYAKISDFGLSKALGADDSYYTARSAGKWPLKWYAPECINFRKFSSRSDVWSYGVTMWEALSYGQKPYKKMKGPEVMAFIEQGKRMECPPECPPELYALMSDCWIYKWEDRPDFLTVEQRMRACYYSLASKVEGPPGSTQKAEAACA
Excerpt: as §1, §2, §3

[10] = molecular target: T10, ErbB2-1 (Homo sapiens, UniProt P04626); assay: Kinase inhibition, 33P transfer to plate-bound substrate: ErbB2-1
T10 construct: Kinases are expressed as either kinase domains or full-length constructs; made in house
Excerpt: as §1, §2, §3

[11] = molecular target: T11, IGFR-1 (Homo sapiens, UniProt P08069); assay: Kinase inhibition, 33P transfer to plate-bound substrate: IGFR-1
T11 construct: Kinases are expressed as either kinase domains or full-length constructs; made in house
Excerpt: as §1, §2, §3

[12] = molecular target: T12, PDGFRB (Homo sapiens, UniProt P09619); assay: Kinase inhibition, 33P transfer to plate-bound substrate: PDGFRB
T12 construct: Kinases are expressed as either kinase domains or full-length constructs; made in house
Excerpt: as §1, §2, §3

[13] = molecular target: T13, ErbB4-1 (Homo sapiens, UniProt Q15303); assay: Kinase inhibition, 33P transfer to plate-bound substrate: ErbB4-1
T13 construct: Kinases are expressed as either kinase domains or full-length constructs; made in house
Excerpt: as §1, §2, §3

[14] = molecular target: T14, FGFR1-1 (Homo sapiens, UniProt P11362); assay: Kinase inhibition, 33P transfer to plate-bound substrate: FGFR1-1
T14 construct: Kinases are expressed as either kinase domains or full-length constructs; made in house
Excerpt: as §1, §2, §3

[15] = molecular target: T15, Flt1-1 (Homo sapiens, UniProt P17948); assay: Kinase inhibition, 33P transfer to plate-bound substrate: Flt1-1
T15 construct: Kinases are expressed as either kinase domains or full-length constructs; made in house
Excerpt: as §1, §2, §3

[16] = molecular target: T16, Fyn-1 (Homo sapiens, UniProt P06241); assay: Kinase inhibition, 33P transfer to plate-bound substrate: Fyn-1
T16 construct: Kinases are expressed as either kinase domains or full-length constructs; made in house
Excerpt: as §1, §2, §3

[17] = molecular target: T17, Hck-1 (Homo sapiens, UniProt P08631); assay: Kinase inhibition, 33P transfer to plate-bound substrate: Hck-1
T17 construct: Kinases are expressed as either kinase domains or full-length constructs; made in house
Excerpt: as §1, §2
as §3, with “The IC50 is determined by the concentration of compound that causes a 50% reduction in the amount of ^33P incorporated onto the substrate bound to the plate.” left out

[18] = molecular target: T18, Lyn-1 (Homo sapiens, UniProt P07948); assay: Kinase inhibition, 33P transfer to plate-bound substrate: Lyn-1
T18 construct: Kinases are expressed as either kinase domains or full-length constructs; made in house
Excerpt: as §1, §2, §3

[19] = molecular target: T19, Src-1 (Homo sapiens, UniProt P12931); assay: Kinase inhibition, 33P transfer to plate-bound substrate: Src-1
T19 construct: Kinases are expressed as either kinase domains or full-length constructs; made in house
Excerpt: as §1, §2, §3

[20] = molecular target: T20, InsR-1 (Homo sapiens, UniProt P06213); assay: Kinase inhibition, 33P transfer to plate-bound substrate: InsR-1
T20 construct: Kinases are expressed as either kinase domains or full-length constructs; made in house
Excerpt: as §1, §2, §3

[21] = molecular target: T21, Ret-1 (Homo sapiens, UniProt P07949); assay: Kinase inhibition, 33P transfer to plate-bound substrate: Ret-1
T21 construct: Kinases are expressed as either kinase domains or full-length constructs; made in house
Excerpt: as §1, §2, §3

Measured: IC50

T16 sequence (P06241 whole entry, the tested form may be a part): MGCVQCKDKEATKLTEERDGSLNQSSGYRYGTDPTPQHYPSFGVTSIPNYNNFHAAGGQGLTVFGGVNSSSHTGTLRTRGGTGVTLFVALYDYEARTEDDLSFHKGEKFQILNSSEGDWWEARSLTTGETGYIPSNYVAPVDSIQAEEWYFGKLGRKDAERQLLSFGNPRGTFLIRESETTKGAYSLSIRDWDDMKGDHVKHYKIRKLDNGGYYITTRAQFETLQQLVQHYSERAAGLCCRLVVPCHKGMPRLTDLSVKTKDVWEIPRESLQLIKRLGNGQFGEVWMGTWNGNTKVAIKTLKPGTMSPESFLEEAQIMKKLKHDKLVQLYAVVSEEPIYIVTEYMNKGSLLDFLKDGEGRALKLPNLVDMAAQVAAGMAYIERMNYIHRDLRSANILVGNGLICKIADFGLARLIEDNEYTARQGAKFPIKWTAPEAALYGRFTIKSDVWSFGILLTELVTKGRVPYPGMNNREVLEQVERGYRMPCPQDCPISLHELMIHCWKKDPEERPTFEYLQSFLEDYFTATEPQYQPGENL
T7 sequence (P08581 25-1390): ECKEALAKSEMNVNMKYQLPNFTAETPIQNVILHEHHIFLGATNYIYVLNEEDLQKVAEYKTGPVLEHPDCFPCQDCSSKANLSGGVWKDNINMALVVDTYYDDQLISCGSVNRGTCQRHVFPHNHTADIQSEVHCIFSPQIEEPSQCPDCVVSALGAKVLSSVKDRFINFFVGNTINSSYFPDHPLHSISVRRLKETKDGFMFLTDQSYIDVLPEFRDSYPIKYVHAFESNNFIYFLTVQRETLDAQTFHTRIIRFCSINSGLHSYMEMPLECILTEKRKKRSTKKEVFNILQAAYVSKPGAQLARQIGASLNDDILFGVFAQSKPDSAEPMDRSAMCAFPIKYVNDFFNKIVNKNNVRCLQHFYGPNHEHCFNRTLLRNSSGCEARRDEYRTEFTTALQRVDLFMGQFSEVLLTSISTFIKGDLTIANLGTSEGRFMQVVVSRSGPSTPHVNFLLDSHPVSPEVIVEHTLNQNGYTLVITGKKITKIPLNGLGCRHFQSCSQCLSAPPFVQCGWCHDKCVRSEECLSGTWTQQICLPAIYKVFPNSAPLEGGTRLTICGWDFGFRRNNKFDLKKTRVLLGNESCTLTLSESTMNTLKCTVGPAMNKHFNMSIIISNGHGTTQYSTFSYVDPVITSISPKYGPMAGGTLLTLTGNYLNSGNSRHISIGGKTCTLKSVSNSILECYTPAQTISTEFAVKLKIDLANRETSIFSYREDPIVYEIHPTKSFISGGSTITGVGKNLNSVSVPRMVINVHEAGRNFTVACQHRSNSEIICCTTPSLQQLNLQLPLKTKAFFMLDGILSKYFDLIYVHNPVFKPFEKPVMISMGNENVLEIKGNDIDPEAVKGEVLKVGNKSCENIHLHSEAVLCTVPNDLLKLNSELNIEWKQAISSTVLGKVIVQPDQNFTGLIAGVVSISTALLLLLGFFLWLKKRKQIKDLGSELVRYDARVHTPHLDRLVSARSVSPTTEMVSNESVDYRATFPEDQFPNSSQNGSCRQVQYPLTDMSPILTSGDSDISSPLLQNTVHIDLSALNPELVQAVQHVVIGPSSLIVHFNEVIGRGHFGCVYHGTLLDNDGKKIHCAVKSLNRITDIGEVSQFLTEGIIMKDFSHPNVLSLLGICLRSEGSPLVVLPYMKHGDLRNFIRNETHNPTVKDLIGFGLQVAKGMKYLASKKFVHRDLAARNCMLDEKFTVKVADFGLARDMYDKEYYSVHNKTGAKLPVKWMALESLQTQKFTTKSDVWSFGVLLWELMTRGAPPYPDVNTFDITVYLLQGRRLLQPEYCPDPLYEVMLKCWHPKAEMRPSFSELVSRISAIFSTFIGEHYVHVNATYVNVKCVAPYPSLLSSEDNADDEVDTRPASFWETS
T21 sequence (P07949 29-1114): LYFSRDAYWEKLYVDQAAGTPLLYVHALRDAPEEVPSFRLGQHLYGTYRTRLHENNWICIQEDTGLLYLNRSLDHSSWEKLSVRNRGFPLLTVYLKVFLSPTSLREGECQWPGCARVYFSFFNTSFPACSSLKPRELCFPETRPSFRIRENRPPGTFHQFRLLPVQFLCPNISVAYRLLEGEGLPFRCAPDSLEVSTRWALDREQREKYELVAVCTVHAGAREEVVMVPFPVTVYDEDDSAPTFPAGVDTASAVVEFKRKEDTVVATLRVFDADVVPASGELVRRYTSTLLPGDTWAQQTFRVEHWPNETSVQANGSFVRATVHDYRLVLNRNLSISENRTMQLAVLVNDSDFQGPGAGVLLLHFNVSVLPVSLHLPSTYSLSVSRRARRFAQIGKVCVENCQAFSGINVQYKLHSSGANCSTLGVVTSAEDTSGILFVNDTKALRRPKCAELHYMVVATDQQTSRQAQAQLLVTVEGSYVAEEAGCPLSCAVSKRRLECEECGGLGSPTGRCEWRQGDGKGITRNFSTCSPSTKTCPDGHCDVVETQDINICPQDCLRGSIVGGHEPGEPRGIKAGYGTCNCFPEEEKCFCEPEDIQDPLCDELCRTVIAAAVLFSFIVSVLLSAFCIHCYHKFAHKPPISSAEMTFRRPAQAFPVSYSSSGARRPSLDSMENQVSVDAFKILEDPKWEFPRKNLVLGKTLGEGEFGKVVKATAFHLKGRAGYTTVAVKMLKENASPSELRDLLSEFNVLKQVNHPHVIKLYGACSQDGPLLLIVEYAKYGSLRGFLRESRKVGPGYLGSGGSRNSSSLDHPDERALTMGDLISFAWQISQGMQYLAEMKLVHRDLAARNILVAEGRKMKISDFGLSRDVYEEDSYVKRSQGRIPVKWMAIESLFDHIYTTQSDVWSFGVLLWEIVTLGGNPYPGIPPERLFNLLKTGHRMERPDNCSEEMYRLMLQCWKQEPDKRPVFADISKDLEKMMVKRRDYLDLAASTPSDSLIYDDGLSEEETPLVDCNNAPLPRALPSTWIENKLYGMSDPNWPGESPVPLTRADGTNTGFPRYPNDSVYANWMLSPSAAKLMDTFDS
T15 sequence (P17948 27-1338): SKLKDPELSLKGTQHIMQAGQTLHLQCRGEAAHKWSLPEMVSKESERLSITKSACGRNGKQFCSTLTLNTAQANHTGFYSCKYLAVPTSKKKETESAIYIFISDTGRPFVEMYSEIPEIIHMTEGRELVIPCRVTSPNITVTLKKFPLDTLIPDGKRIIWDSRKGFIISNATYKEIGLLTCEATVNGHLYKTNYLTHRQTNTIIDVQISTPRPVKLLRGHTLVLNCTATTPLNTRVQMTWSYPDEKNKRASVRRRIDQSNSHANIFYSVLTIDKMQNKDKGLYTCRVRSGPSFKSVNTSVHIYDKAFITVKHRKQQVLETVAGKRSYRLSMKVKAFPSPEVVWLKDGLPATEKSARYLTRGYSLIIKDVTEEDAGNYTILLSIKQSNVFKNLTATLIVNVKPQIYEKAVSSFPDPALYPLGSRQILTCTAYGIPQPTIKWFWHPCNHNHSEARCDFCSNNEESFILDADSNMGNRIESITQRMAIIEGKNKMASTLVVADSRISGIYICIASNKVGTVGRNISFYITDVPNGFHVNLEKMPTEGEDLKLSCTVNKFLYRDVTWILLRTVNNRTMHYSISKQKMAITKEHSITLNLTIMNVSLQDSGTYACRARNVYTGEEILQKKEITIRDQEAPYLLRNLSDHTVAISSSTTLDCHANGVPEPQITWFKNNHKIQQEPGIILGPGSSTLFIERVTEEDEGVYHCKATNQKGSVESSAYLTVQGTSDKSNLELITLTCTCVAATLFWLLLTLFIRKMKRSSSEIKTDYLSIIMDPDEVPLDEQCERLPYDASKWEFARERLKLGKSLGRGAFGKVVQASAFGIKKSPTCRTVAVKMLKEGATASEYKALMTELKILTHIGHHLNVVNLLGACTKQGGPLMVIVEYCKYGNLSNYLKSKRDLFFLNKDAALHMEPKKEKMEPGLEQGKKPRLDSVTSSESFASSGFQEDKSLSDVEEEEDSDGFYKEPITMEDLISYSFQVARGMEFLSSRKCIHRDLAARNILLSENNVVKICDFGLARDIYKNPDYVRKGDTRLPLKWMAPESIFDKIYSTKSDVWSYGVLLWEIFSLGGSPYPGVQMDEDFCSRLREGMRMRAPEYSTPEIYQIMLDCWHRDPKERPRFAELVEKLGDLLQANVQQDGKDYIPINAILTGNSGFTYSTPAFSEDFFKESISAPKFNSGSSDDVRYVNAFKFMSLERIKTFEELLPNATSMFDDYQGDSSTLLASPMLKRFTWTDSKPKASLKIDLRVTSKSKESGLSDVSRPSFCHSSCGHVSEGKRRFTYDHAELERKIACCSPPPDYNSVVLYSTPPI
T14 sequence (P11362 22-822): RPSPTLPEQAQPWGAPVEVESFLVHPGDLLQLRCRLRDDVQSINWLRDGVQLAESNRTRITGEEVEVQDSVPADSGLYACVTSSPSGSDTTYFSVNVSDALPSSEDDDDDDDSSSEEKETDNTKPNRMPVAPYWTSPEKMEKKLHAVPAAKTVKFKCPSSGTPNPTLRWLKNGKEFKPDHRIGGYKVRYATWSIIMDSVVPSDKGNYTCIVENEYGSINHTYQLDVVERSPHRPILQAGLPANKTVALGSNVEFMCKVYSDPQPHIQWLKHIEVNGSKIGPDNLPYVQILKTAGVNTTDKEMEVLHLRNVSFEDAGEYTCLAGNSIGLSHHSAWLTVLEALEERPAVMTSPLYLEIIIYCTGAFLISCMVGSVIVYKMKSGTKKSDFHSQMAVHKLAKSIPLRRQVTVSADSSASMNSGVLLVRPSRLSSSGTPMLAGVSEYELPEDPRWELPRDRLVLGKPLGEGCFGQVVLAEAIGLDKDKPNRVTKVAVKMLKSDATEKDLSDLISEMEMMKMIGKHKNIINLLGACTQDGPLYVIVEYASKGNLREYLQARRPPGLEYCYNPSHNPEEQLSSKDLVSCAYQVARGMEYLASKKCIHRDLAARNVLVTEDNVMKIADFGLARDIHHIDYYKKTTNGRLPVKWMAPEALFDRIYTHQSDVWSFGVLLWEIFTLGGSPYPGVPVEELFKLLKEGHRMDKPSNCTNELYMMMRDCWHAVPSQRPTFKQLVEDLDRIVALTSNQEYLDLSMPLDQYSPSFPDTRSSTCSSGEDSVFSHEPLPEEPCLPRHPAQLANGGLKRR

COc1cc(Nc2nccc(-n3c(N)nc4ccccc43)n2)cc(OC)c1OC [Compound 11]
≥ 10 µM: [2] | [8] | [9]
1.5 to 5 µM: [6]
5 to 10 µM: [1] | [3] | [4] | [5] | [7]

COc1cc(Nc2nccc(-n3c(=O)oc4ccccc43)n2)cc(OC)c1OC [Compound 25]
≥ 10 µM: [1] | [2] | [10] | [11] | [3] | [4] | [5] | [6] | [7] | [12] | [8] | [9]

COc1cc(Nc2nccc(-n3ccc4ccccc43)n2)cc(OC)c1OC [Compound 31]
1.5 to 5 µM: [13] | [3] | [7]
5 to 10 µM: [8]
< 1.5 µM: [14] | [15] | [16] | [4] | [5] | [6] | [18] | [12] | [19]
≥ 10 µM: [1] | [2] | [17] | [9]

COc1cc(Nc2ccnc(-n3ccc4ccccc43)n2)cc(OC)c1OC [Compound 32]
≥ 10 µM: [1] | [2] | [5] | [6] | [7] | [8] | [9]
5 to 10 µM: [4]

COc1cc(Nc2nccc(-n3ccc(-c4ccc(Cl)cc4)n3)n2)cc(OC)c1OC [Compound 33]
5 to 10 µM: [9]
≥ 10 µM: [1] | [2] | [10] | [11] | [3] | [4] | [5] | [6] | [7] | [12]

COc1ccc(-c2ccn(-c3ccnc(Nc4cc(OC)c(OC)c(OC)c4)n3)n2)cc1 [Compound 34]
≥ 10 µM: [1] | [10] | [11] | [3] | [4] | [5] | [6] | [7] | [12]
5 to 10 µM: [2] | [9]

COc1cc(Nc2nccc(Nc3cc(C(C)(C)C)n[nH]3)n2)cc(OC)c1OC [Compound 35]
5 to 10 µM: [2] | [13] | [14] | [15]
< 1.5 µM: [11] | [20] | [5] | [6] | [18] | [7] | [19]
≥ 10 µM: [1] | [10] | [9]
1.5 to 5 µM: [16] | [3] | [4] | [12] | [21]

COc1cc(Nc2nccc(Nc3ccc4c(cnn4Cc4ccccc4)c3)n2)cc(OC)c1OC [Compound 36]
≥ 10 µM: [1]
< 1.5 µM: [2] | [10] | [11] | [3] | [4] | [5] | [6] | [12]
5 to 10 µM: [9]
1.5 to 5 µM: [7]

COc1cc(Nc2ccnc(Nc3ccc4c(cnn4Cc4ccccc4)c3)n2)cc(OC)c1OC [Compound 37]
≥ 10 µM: [1] | [9]
< 1.5 µM: [10] | [11] | [5] | [6] | [12]
1.5 to 5 µM: [2] | [3] | [4] | [7]

Cc1cccc(Nc2nccc(Nc3cccc(Br)c3)n2)c1 [Compound 54]
5 to 10 µM: [4] | [12]
< 1.5 µM: [11]
≥ 10 µM: [1] | [2] | [10] | [3] | [5] | [6] | [7]

COc1ccc(Nc2ccnc(Nc3ccc(OC)c(OC)c3)n2)cc1OC [Compound 56]
≥ 10 µM: [1] | [2] | [10] | [20] | [3] | [7] | [9]
< 1.5 µM: [11] | [4] | [6] | [12]
5 to 10 µM: [16] | [5]
1.5 to 5 µM: [14] | [15] | [21] | [19]

Clc1cccc(Nc2ccnc(Nc3cccc(Cl)c3)n2)c1 [Compound 57]
≥ 10 µM: [1] | [2] | [10] | [5] | [9]
1.5 to 5 µM: [7]
5 to 10 µM: [14] | [15] | [20] | [3] | [12]
< 1.5 µM: [11] | [4] | [6] | [21]

COc1cc(Nc2ccnc(Nc3ccc(OCc4ccccc4)cc3)n2)cc(OC)c1OC [Compound 58]
< 1.5 µM: [6]
≥ 10 µM: [2]
5 to 10 µM: [3] | [4] | [5] | [7]

COc1cc(Nc2ccnc(Nc3ccc(Oc4ccccc4)cc3)n2)cc(OC)c1OC [Compound 59]
< 1.5 µM: [6]
5 to 10 µM: [2] | [3] | [4] | [5] | [7]

Cc1cccc(Nc2ccnc(Nc3cccc(Br)c3)n2)c1 [Compound 60]
≥ 10 µM: [1] | [2] | [5]
< 1.5 µM: [11] | [6]
1.5 to 5 µM: [3] | [4] | [12]
5 to 10 µM: [7]
